Results taken from patent publication US20070275464A1, “Chitin Oligosaccharide Elicitor-Binding Proteins” (NATIONAL INSTITUTE OF AGROBIOLOGICAL SCIENCES, priority 2004, published 2007).

What was measured:
CEBiP gene expression = assay: Effect of elicitor on CEBiP expression in cultured cells (FIG. 10); assay type: cell-based, rice
rice protoplasts = assay: Reactive oxygen production in rice protoplasts, luminol method; assay type: cell-based, Oryza sativa L. cv. Nipponbare; conditions: 1 μL of 100 μg/mL (GlcNAc)8, 15 minutes
Method: Protoplasts were prepared from cultured rice cells, and the effect of the anti-Con A-CEBiP antibodies on elicitor-responsive reactive oxygen production was examined.
Cultured rice cells were strained through a metal mesh. Four days later, these cells were placed into 14 mL of 0.1% CaCl2, 0.02% MES, 9% Mannitol solution (pH 5.6) containing 2% Cellurase RS (Yakult) and 0.05% Pectolyase Y-23, and then gently shaken at 30° C. for six hours. Cells were filtered through a 25 μm nylon mesh, and the cells on the mesh were washed with 20 mL of Washing buffer (0.1% CaCl2/0.4 M Mannitol) (Nishimura, N., Tanabe, S., He, D.-Y, Yokota, T., Shibuya, N. and Minami, E. Plant Physiol. Biochem., 39, 1105-1110 (2001)). The protoplasts were collected into a 50 mL Falcon tube and recovered by centrifugation at 600 rpm for five minutes. […]
25 μL of the reacted solution, 400 μL of 50 mM potassium phosphate buffer (pH 7.9), 25 μL of 1.1 mM luminol, and 50 μL of 14 mM potassium ferricyanide were stirred in a tube, and immediately thereafter, a chemiluminescence count was measured for ten seconds using a luminometer (Turner Designs TD-20/20, Sunnyvale, Calif.). H2O2 concentration was calculated by producing a standard curve after measuring the luminescence by a commercially available H2O2 solution (aqueous 30% H2O2 solution, Wako Pure Chemical Industry).

NT rice cells = assay: Reactive oxygen production due to elicitors in NT cultured rice cells; assay type: cell-based, Oryza sativa L. cv. Nipponbare; conditions: (GlcNAc)8 100 ng/mL; FIG. 16
Method: (§1) Reactive oxygen production due to sugar elicitor treatment in NT and CEBiP-RNAi cultured rice cells was analyzed as follows: NT rice calli and CEBiP-RNAi rice calli were placed into 100 mL Erlenmeyer flasks containing 30 mL of N6 medium. After culturing at 27° C. for one week, the cells were strained, 0.6 mL of cells were transferred to 30 mL of fresh medium and cultured for another four days. 60 mg or 100 mg of each of the cultured cells were placed into a 2 mL tube, 1 mL of fresh N6 medium was added, and the cells were cultured overnight. (GlcNAc)8 (100 ng/mL), Pseudomonas aeruginosa-derived lipopolysaccharide (LPS, 50 μg/mL, Sigma), and (GlcNH2)7 (2 μg/mL) were used as elicitors. An elicitor was added to NT and CEBiP-RNAi cultured rice cells, treatment was carried out for 30 minutes or two hours, then 25 μL of the medium solution was sampled for reactive oxygen measurements. As a control, a same amount of distilled water (DW) was added, and similar treatments were carried out. Reactive oxygen was measured by adding 25 μL of the reacted solution, 400 μL of 50 mM potassium phosphate buffer (PK, pH 7.9), 25 μL of 1.1 mM luminol, and 50 μL of 14 mM potassium ferricyanide to a tube, mixing, then immediately measuring chemiluminescence counts for ten seconds in a luminometer (Turner Design TD-20/20, Sunnyvale, Calif.).

NT cultured rice cells = assay: Microarray analysis of elicitor-responsive genes, NT cultured rice cells; assay type: cell-based
Description: (§2) An oligoarray (Agilent) produced from a rice full-length cDNA database was used for the microarray analyses. For the preparation of Cyanine 3 (Cy3)- and Cyanine 5(Cy5)-labeled cRNAs, RNAs isolated from each of the cultured cells of NT and two kinds of CEBiP-RNAi cultured rice cells treated with (GlcNAc)8 for two hours ((GlcNAc)8-NT, (GlcNAc)8-CEBiP-RNAi #3, and (GlcNAc)8-CEBiP-RNAi #6) as well as of cultured cells treated with water as controls were used. Methods for Cy3- and Cy5-labeling and methods for hybridizing the Cy3- and Cy5-labeled samples with slide glasses onto which 22K rice oligoprobes have been attached were carried out according to the protocol from Agilent. The combinations of hybridization reagents that were used were Cy5-labeled (GlcNAc)8-NT/Cy3-labeled NT; [2] Cy5-labeled (GlcNAc)8-CEBiP-RNAi #3/Cy3-labeled CEBiP-RNAi #3; and [3] Cy5-labeled (GlcNAc)8-CEBiP-RNAi #6/Cy3-labeled CEBiP-RNAi #6. Furthermore, experiments in which the labeling reagents were swapped (the labeled forms were interchanged) were also performed. The obtained results were analyzed at http://tos.nias.affrc.go.jp/cgi-bin/tos17/array.cgi.

CEBiP-RNAi #6 rice cells = assay: Microarray analysis of elicitor-responsive genes, CEBiP-RNAi #6 cultured rice cells; assay type: cell-based
Description: as §2

CEBiP-RNAi rice cells = assay: Reactive oxygen production due to elicitors in CEBiP-RNAi cultured rice cells; assay type: cell-based, Oryza sativa L. cv. Nipponbare; conditions: (GlcNH2)7 2 μg/mL
Method: as §1

[1] = (GlcNAc)8-NT/NT area, two hours
[2] = (GlcNAc)8 two hours vs water, NT cultured rice cells
[3] = (GlcNAc)8-CEBiP-RNAi #6/CEBiP-RNAi #6 area, two hours
[4] = (GlcNAc)8 two hours vs water, CEBiP-RNAi #6 cells
[5] = CEBiP-RNAi #6 cells vs non-transformant

CC(=O)N[C@H]1[C@H](O[C@H]2[C@H](O)[C@@H](NC(C)=O)[C@H](O[C@H]3[C@H](O)[C@@H](NC(C)=O)[C@H](O[C@H]4[C@H](O)[C@@H](NC(C)=O)C(O)O[C@@H]4CO)O[C@@H]3CO)O[C@@H]2CO)O[C@H](CO)[C@@H](O[C@@H]2O[C@H](CO)[C@@H](O[C@@H]3O[C@H](CO)[C@@H](O[C@@H]4O[C@H](CO)[C@@H](O)[C@H](O)[C@H]4NC(C)=O)[C@H](O)[C@H]3NC(C)=O)[C@H](O)[C@H]2NC(C)=O)[C@@H]1O (stereo partly shown) [chitin oligosaccharide elicitor]
induction of expression of the target gene (CEBiP) (CEBiP gene expression): induce expression

CC(=O)N[C@H]1[C@H](O[C@H]2[C@H](O)[C@@H](NC(C)=O)[C@H](O[C@H]3[C@H](O)[C@@H](NC(C)=O)[C@H](O[C@H]4[C@H](O)[C@@H](NC(C)=O)C(O)O[C@@H]4CO)O[C@@H]3CO)O[C@@H]2CO)O[C@H](CO)[C@@H](O[C@@H]2O[C@H](CO)[C@@H](O[C@@H]3O[C@H](CO)[C@@H](O[C@@H]4O[C@H](CO)[C@@H](O[C@@H]5O[C@H](CO)[C@@H](O)[C@H](O)[C@H]5NC(C)=O)[C@H](O)[C@H]4NC(C)=O)[C@H](O)[C@H]3NC(C)=O)[C@H](O)[C@H]2NC(C)=O)[C@@H]1O (stereo partly shown) [(GlcNAc)8]
production of reactive oxygen increase compared to the control (rice protoplasts): 1.7 times
production of reactive oxygen in NT rice cells, LPS treatment in NT defined as 100% (NT rice cells): approximately 86.3%
number of genes whose expression level decreased (NT cultured rice cells; [1]): 220 genes
number of genes whose expression level increased (NT cultured rice cells; [1]): 746 genes
FOLD INCREASE NT* AK058296 1-aminocyclopropane-1-carboxylate oxidase (NT cultured rice cells; [2]): 6.6 fold
FOLD INCREASE NT* AK058891 β-1.3 glucanase (NT cultured rice cells; [2]): 4.1 fold
FOLD INCREASE NT* AK060423 Alanine:glyoxylate aminotransferase like protein (NT cultured rice cells; [2]): 11.2 fold
FOLD INCREASE NT* AK060582 Replication protein A1(Os-RPA1) (NT cultured rice cells; [2]): 4.6 fold
FOLD INCREASE NT* AK060625 GDSL-motif lipase/hydrolase (NT cultured rice cells; [2]): 6.4 fold
FOLD INCREASE NT* AK060834 Calreticulin (NT cultured rice cells; [2]): 3.3 fold
FOLD INCREASE NT* AK063651 Harpin induced protein (NT cultured rice cells; [2]): 24.7 fold
FOLD INCREASE NT* AK066687 Shikimate kinase (NT cultured rice cells; [2]): 9.5 fold
FOLD INCREASE NT* AK066784 Small GTP-binding protein (rab5A) (NT cultured rice cells; [2]): 2.1 fold
FOLD INCREASE NT* AK067690 NAC Transcription factor (NT cultured rice cells; [2]): 2.4 fold
FOLD INCREASE NT* AK068115 Harpin induced protein (NT cultured rice cells; [2]): 43.1 fold
FOLD INCREASE NT* AK068993 PAL (NT cultured rice cells; [2]): 48.4 fold
FOLD INCREASE NT* AK069456 Peroxidase (NT cultured rice cells; [2]): 10.9 fold
FOLD INCREASE NT* AK071482 Caffeoyl-CoA 3-O-methyl-transferase (NT cultured rice cells; [2]): 11.3 fold
FOLD INCREASE NT* AK071598 Lipid transfer protein (NT cultured rice cells; [2]): 10.0 fold
FOLD INCREASE NT* AK072235 Cysteine proteinase (NT cultured rice cells; [2]): 4.3 fold
FOLD INCREASE NT* AK073072 CEBiP (NT cultured rice cells; [2]): 2.6 fold
FOLD INCREASE NT* AK100959 beta-Expansin(EXPB3) (NT cultured rice cells; [2]): 5.5 fold
FOLD INCREASE NT* AK101431 Patatin-like protein (NT cultured rice cells; [2]): 19.6 fold
FOLD INCREASE NT* AK102192 β-Galactosidase (NT cultured rice cells; [2]): 3.1 fold
FOLD INCREASE NT* AK103094 Laccase (NT cultured rice cells; [2]): 10.0 fold
FOLD INCREASE NT* AK105971 Pirin (NT cultured rice cells; [2]): 20.6 fold
number of genes whose expression level decreased (CEBiP-RNAi #6 rice cells; [3]): 90 genes
number of genes whose expression level increased (CEBiP-RNAi #6 rice cells; [3]): 361 genes
FOLD INCREASE RNAi #6 AK058891 β-1.3 glucanase (CEBiP-RNAi #6 rice cells; [4]): 11.4 fold
FOLD INCREASE RNAi #6 AK060582 Replication protein A1(Os-RPA1) (CEBiP-RNAi #6 rice cells; [4]): 2.8 fold
FOLD INCREASE RNAi #6 AK060834 Calreticulin (CEBiP-RNAi #6 rice cells; [4]): 14.2 fold
FOLD INCREASE RNAi #6 AK065812 Zea mays NADPH HC toxin reductase (CEBiP-RNAi #6 rice cells; [4]): 16.0 fold
FOLD INCREASE RNAi #6 AK066784 Small GTP-binding protein (rab5A) (CEBiP-RNAi #6 rice cells; [4]): 2.5 fold
FOLD INCREASE RNAi #6 AK067690 NAC Transcription factor (CEBiP-RNAi #6 rice cells; [4]): 3.4 fold
FOLD INCREASE RNAi #6 AK068115 Harpin induced protein (CEBiP-RNAi #6 rice cells; [4]): 10.1 fold
FOLD INCREASE RNAi #6 AK068993 PAL (CEBiP-RNAi #6 rice cells; [4]): 2.9 fold
FOLD INCREASE RNAi #6 AK072235 Cysteine proteinase (CEBiP-RNAi #6 rice cells; [4]): 5.5 fold
FOLD INCREASE RNAi #6 AK100959 beta-Expansin(EXPB3) (CEBiP-RNAi #6 rice cells; [4]): 5.4 fold
FOLD INCREASE RNAi #6 AK102192 β-Galactosidase (CEBiP-RNAi #6 rice cells; [4]): 2.8 fold
FOLD INCREASE RNAi #6 AK103094 Laccase (CEBiP-RNAi #6 rice cells; [4]): 2.1 fold
FOLD INCREASE RNAi #6 AK103707 Ribosome inactivating protein 2 (CEBiP-RNAi #6 rice cells; [4]): 27.8 fold
genes of the 746 increased in NT showing a suppression of two times or more (CEBiP-RNAi #6 rice cells; [5]): 45 genes
genes of the 746 increased in NT showing suppression of two times or more or loss of elicitor responsiveness (CEBiP-RNAi #6 rice cells; [5]): 530 genes
share of the 746 increased genes showing suppression of two times or more or loss of elicitor responsiveness (CEBiP-RNAi #6 rice cells; [5]): 71%
genes of the 361 increased in CEBiP-RNAi #6 with increased expression levels compared to NT cells (CEBiP-RNAi #6 rice cells; elicitor treatment): one hundred
genes whose expression level decreased with equivalent response in non-transformant and CEBiP-RNAi #6 rice cells (CEBiP-RNAi #6 rice cells; elicitor treatment): 44 genes
genes whose expression level increased with equivalent response in non-transformant and CEBiP-RNAi #6 rice cells (CEBiP-RNAi #6 rice cells; elicitor treatment): 216 genes
share of the 361 increased genes with increased expression levels compared to NT cells (CEBiP-RNAi #6 rice cells; elicitor treatment): approximately 28%
genes decreased in NT showing suppression of two times or more or a loss in CEBiP-RNAi #6 (CEBiP-RNAi #6 rice cells; vs non-transformants): 176 genes
share of genes decreased in NT showing suppression of two times or more or a loss in CEBiP-RNAi #6 (CEBiP-RNAi #6 rice cells; vs non-transformants): 80%

N[C@H]1[C@H](O[C@H]2[C@H](O)[C@@H](N)[C@H](O[C@H]3[C@H](O)[C@@H](N)[C@H](O[C@H]4[C@H](O)[C@@H](N)[C@H](O[C@H]5[C@H](O)[C@@H](N)[C@H](O[C@H]6[C@H](O)[C@@H](N)[C@H](O[C@H]7[C@H](O)[C@@H](N)C(O)O[C@@H]7CO)O[C@@H]6CO)O[C@@H]5CO)O[C@@H]4CO)O[C@@H]3CO)O[C@@H]2CO)O[C@H](CO)[C@@H](O)[C@@H]1O (stereo partly shown) [(GlcNH2)7]
reactive oxygen responsiveness in both CEBiP-RNAi lines (CEBiP-RNAi rice cells): Non-responsiveness
